Here are results for four molecules from PMC8637440, “Structural Modifications Yield Novel Insights Into the Intriguing Pharmacodynamic Potential of Anti-inflammatory Nitro-Fatty Acids” (Frontiers in Pharmacology, 2021).

The assay deals with T1, COX-2 (Homo sapiens, UniProt P35354).
T1 sequence (P35354 18-604): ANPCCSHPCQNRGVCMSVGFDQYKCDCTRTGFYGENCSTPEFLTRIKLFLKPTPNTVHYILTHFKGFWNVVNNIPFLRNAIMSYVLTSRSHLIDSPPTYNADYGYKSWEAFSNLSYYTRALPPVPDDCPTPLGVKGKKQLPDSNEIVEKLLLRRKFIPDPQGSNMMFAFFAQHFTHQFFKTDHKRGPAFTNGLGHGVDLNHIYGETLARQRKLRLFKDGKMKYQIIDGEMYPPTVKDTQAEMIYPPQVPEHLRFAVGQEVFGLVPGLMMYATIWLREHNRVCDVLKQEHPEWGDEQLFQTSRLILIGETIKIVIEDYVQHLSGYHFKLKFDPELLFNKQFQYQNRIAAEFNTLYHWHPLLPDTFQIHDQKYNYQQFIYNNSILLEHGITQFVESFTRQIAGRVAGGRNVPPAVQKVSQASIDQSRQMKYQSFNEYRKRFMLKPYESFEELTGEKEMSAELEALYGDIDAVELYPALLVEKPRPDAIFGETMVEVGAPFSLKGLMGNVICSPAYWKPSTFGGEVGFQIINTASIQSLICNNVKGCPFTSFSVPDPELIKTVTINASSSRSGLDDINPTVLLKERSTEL
Nature of the assay: Recombinant COX-2 peroxidase activity assay. Set-up: purchased Cayman Chemicals #700100. To be noted: 30 min preincubation. The class given is biochemical. Here is the method: The effects of NFA on COX-2 activity were analyzed using a recombinant COX-2 activity assay using a COX Fluorescent Inhibitor Screening Assay Kit (Cayman Chemicals, #700100). The assay was performed according to the manufacturer’s instructions in a black 96-well microplate. Human COX-2 was pre-incubated with NFA and control inhibitors for 30 min at RT following the addition of ADHP (10-acetyl-3,5-dihydroxyphenoxazine) and AA. The mixture was incubated again for 2 min at RT, and the fluorescence was measured at excitation/emission wavelengths of 535/587 nm.
FIGURE 4 Effects of NFA on COX-2 peroxidase activity. […] Peroxidase activity was measured by the appearance of TMPD. Data are presented as the percent of the control mean ± SD, n = 4. Statistical significance was calculated by one-way ANOVA with Bonferroni post-test. **p ≤ 0.0021, ***p ≤ 0.0002, ****p ≤ 0.0001 are considered significant.

The term inhibition denotes the share of the control response that was lost under treatment. Regarding `CCCCCCCCC=C(CCCCCCCC(=O)O)[N+](=O)[O-]` [18.9.9, 9-nitro-octadec-9-enoic acid], the inhibition at 10 µM was > 65%.
On to `CCCCCCCC=C(CCCCCCCCC(=O)O)[N+](=O)[O-]` [18.10.10, 10-nitro-octadec-10-enoic acid], for which the inhibition at 10 µM is > 90%.
Take `CCCCCCCCCCC=C(CCCCCCCC(=O)O)[N+](=O)[O-]` [20.9.9, 9-nitro-eicos-9-enoic acid]: the inhibition at 10 µM was > 85%.
With `CCCCCCCC/C=C\CCCCCCCC(=O)O` [OA, oleic acid, reference compound], the “inhibition of recombinant COX-2 peroxidase activity” value (10 µM) is “only weakly affected”.
